Data from PubChem BioAssay (NCI).
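Values below derive from 48-hour exposures of cells grown in 96-well plates, with endpoints linearly interpolated between the two concentrations bracketing the appropriate inhibition level. Abbreviation: GI50, concentration required for 50% inhibition of growth. At the TGI there is no net growth.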

What was measured:
Assay in all cases: NCI tumour cell line growth inhibition, 48 h
[1] = test system: MCF7 breast
[2] = test system: HL-60(TB) leukemia
[3] = test system: A549 NSCLC
[4] = test system: SNB-19 CNS
[5] = test system: MDA-MB-231 breast
[6] = test system: MDA-MB-435
[7] = test system: OVCAR-4 ovarian
[8] = test system: SR leukemia
[9] = test system: HOP-92 NSCLC
[10] = test system: ACHN renal
[11] = test system: HT29 colon
[12] = test system: OVCAR-8 ovarian
[13] = test system: HOP-62 NSCLC
[14] = test system: NCI-H226 lung
[15] = test system: DU-145 prostate
[16] = test system: CAKI-1 renal
[17] = test system: SF-295 CNS
[18] = test system: UACC-257 melanoma
[19] = test system: SK-MEL-5 melanoma
[20] = test system: PC-3 prostate
[21] = test system: T-47D breast
[22] = test system: SW-620 colon
[23] = test system: EKVX NSCLC
[24] = test system: HCC-2998 colon
[25] = test system: SNB-75 CNS
[26] = test system: HCT-15 colon
[27] = test system: MOLT-4 leukemia
[28] = test system: OVCAR-3 ovarian
[29] = test system: NCI-H23 lung
[30] = test system: 786-0 renal
[31] = test system: KM12 colon
[32] = test system: MALME-3M melanoma
[33] = test system: SF-539 CNS
[34] = test system: UO-31 renal
[35] = test system: SN12C renal
[36] = test system: M14 melanoma
[37] = test system: NCI-H522 lung
[38] = test system: SF-268 CNS
[39] = test system: K-562 leukemia
[40] = test system: NCI-H460 lung
[41] = test system: OVCAR-5 ovarian
[42] = test system: IGROV1 ovarian
[43] = test system: RPMI-8226 leukemia
[44] = test system: U251 CNS

Cc1cc(N=C2NC(=O)S/C2=C\c2ccc(F)cc2)n[nH]1
GI50 [1]: 2.36 µM
TGI [1]: > 100 µM
GI50 [2]: 3.3 µM
TGI [2]: > 100 µM
GI50 [3]: 3.07 µM
TGI [3]: > 100 µM
GI50 [4]: 3.2 µM
TGI [4]: > 100 µM
GI50 [5]: 2.95 µM
TGI [5]: > 100 µM
GI50 [6]: 3 µM
TGI [6]: > 100 µM
GI50 [7]: 3.85 µM
TGI [7]: > 100 µM
GI50 [8]: 2.35 µM
TGI [8]: > 100 µM
GI50 [9]: 2.62 µM
TGI [9]: > 100 µM
GI50 [10]: 3.36 µM
TGI [10]: > 100 µM
GI50 [11]: 4.09 µM
TGI [11]: > 100 µM
GI50 [12]: 2.76 µM
TGI [12]: > 100 µM
GI50 [13]: 2.59 µM
TGI [13]: > 100 µM
GI50 [14]: 2.9 µM
TGI [14]: > 100 µM
GI50 [15]: 5.33 µM
TGI [15]: > 100 µM
GI50 [16]: 3.81 µM
TGI [16]: > 100 µM
GI50 [17]: 2.79 µM
TGI [17]: > 100 µM
GI50 [18]: 2.82 µM
TGI [18]: > 100 µM
GI50 [19]: 3.16 µM
TGI [19]: > 100 µM
GI50 [20]: 3.37 µM
TGI [20]: > 100 µM
GI50 [21]: 2.58 µM
TGI [21]: > 100 µM
GI50 [22]: 3.92 µM
TGI [22]: > 100 µM
GI50 [23]: 2.69 µM
TGI [23]: > 100 µM
GI50 [24]: 3.67 µM
TGI [24]: > 100 µM
GI50 [25]: 2.12 µM
TGI [25]: > 100 µM
GI50 [26]: 2.47 µM
TGI [26]: > 100 µM
GI50 [27]: 2.93 µM
TGI [27]: > 100 µM
GI50 [28]: 3.13 µM
TGI [28]: > 100 µM
GI50 [29]: 3.63 µM
TGI [29]: > 100 µM
GI50 [30]: 3.01 µM
TGI [30]: > 100 µM
GI50 [31]: 4.13 µM
TGI [31]: > 100 µM
GI50 [32]: 3.47 µM
TGI [32]: > 100 µM
GI50 [33]: 2.84 µM
TGI [33]: > 100 µM
GI50 [34]: 2.33 µM
TGI [34]: > 100 µM
GI50 [35]: 3.81 µM
TGI [35]: > 100 µM
GI50 [36]: 2.63 µM
TGI [36]: > 100 µM
GI50 [37]: 2.57 µM
TGI [37]: > 100 µM
GI50 [38]: 4.48 µM
TGI [38]: > 100 µM
GI50 [39]: 3.32 µM
TGI [39]: > 100 µM
GI50 [40]: 3.13 µM
TGI [40]: > 100 µM
GI50 [41]: 3.65 µM
TGI [41]: > 100 µM
GI50 [42]: 2.59 µM
TGI [42]: > 100 µM
GI50 [43]: 2.27 µM
TGI [43]: 6.34 µM
GI50 [44]: 2.35 µM
TGI [44]: > 100 µM
